Results published in US11952371B1, “2-[(1,3-benzoxazol-2-yl)imino]-5,5-diphenylimidazolidin-4-one as an antimicrobial compound” (KING FAISAL UNIVERSITY, priority 2023, dated 2024).

Tests used:
Aspergillus flavus = assay: Agar plate disc-diffusion, antifungal activity; assay type: cell-based
Experimental: (§1) The agar plate disc-diffusion method was applied. […] The discs were then placed onto the surface of agar plates (nutrient agar for bacteria and Sabouraud's dextrose agar for fungi) seeded with the test organism. Each plate contained 15 mL of the agar medium, previously seeded with 0.2 mL of the broth culture of each organism pregrown for 18 hours. The plates were incubated at 37° C. for 48 hours, and 72 hours for fungi. The inhibition zones were measured in millimeter. Discs impregnated with DMSO were used as a control, and its inhibition zone was subtracted from the tested compound actual inhibition zone.
(§2) The results of the antimicrobial testing can be observed in Tables 1 and 2, below, with ciprofloxacin serving as a reference.

[1] = system: Chrysosporium keratinophilum; assay: Agar plate disc-diffusion, antifungal activity; assay type: cell-based
Experimental: as §1, §2

Staphylococcus aureus = assay: Agar plate disc-diffusion, antibacterial activity; assay type: cell-based
Experimental: as §1, §2

Pseudomonas aeruginosa = assay: Agar plate disc-diffusion, antibacterial activity; assay type: cell-based
Experimental: as §1, §2

Escherichia coli = assay: Agar plate disc-diffusion, antibacterial activity; assay type: cell-based
Experimental: as §1, §2

Bacillus cereus = assay: Agar plate disc-diffusion, antibacterial activity; assay type: cell-based
Experimental: as §1, §2

[2] = A = concentration of comp. = 10,000 μL
[3] = B = concentration of comp. = 30,000 μL
[4] = C = concentration of comp. = 50,000 μL

| melting point | Compound | inhibition zone (Aspergillus flavus; [2]) | inhibition zone (Aspergillus flavus; [3]) | inhibition zone (Aspergillus flavus; [4]) | inhibition zone [1, 2] | inhibition zone [1, 3] | inhibition zone [1, 4] | inhibition zone (Staphylococcus aureus; [2]) | inhibition zone (Staphylococcus aureus; [3]) | inhibition zone (Staphylococcus aureus; [4]) | inhibition zone (Pseudomonas aeruginosa; [2]) | inhibition zone (Pseudomonas aeruginosa; [3]) | inhibition zone (Pseudomonas aeruginosa; [4]) | inhibition zone (Escherichia coli; [2]) | inhibition zone (Escherichia coli; [3]) | inhibition zone (Escherichia coli; [4]) | inhibition zone (Bacillus cereus; [2]) | inhibition zone (Bacillus cereus; [3]) | inhibition zone (Bacillus cereus; [4]) |
| --- | --- | --- | --- | --- | --- | --- | --- | --- | --- | --- | --- | --- | --- | --- | --- | --- | --- | --- | --- |
| 234 to 236 °C | O=C1N/C(=N/c2nc3ccccc3o2)NC1(c1ccccc1)c1ccccc1 [compound 3, 2-[(1,3-benzoxazol-2-yl)imino]-5,5-diphenylimidazolidin-4-one] | 19 millimeter | 23 millimeter | 37 millimeter | 22 millimeter | 25 millimeter | 47 millimeter | 16 millimeter | 19 millimeter | 23 millimeter | 26 millimeter | 30 millimeter | 48 millimeter | 25 millimeter | 33 millimeter | 39 millimeter | 27 millimeter | 30 millimeter | 42 millimeter |
| – | O=C(O)c1cn(C2CC2)c2cc(N3CCNCC3)c(F)cc2c1=O [Cip., ciprofloxacin, reference compound] | 29 millimeter | 30 millimeter | 42 millimeter | 29 millimeter | 30 millimeter | 53 millimeter | 42 millimeter | 44 millimeter | 53 millimeter | 29 millimeter | 30 millimeter | 53 millimeter | 30 millimeter | 39 millimeter | 60 millimeter | 29 millimeter | 31 millimeter | 42 millimeter |
